We go through 24 compounds from US4331670A (priority 1979, dated 1982).

In one experiment the test system is Plutella xylostella. The experiment can be described thus: Test 11: mortality of larvae of Plutella xylostella on treated cabbage leaf. The format is in vivo. Particulars: foliar, 192 h, leaf dipped, emulsifiable concentrate Composition No. 3, eight days, read-out: Percent mortality. From the text:
Each emulsifiable concentrate of each active ingredient as Composition No. 3 was dispersed in water at a concentration of 800 ppm. Each leaf of cabbage was dipped into each emulsion for about 10 seconds and taken up and dried in air.
A wet filter paper was put in each Petri dish (diameter of 9 cm), and each treated leaf was put on the filter paper. Larvae of Plutella xylostella at 2nd to 3rd instar were charged and the dish was covered with a cap and kept in a constant temperature chamber with lighting at 28° C. Eight days after the charge, mortality was measured and each percent mortality was calculated.

The test system of another experiment is Sphaerotheca fuliginea. Nature of the experiment: whole plant or invertebrate. Type of experiment: in vivo, Sphaerotheca fuliginea (cucumber plant, Suyo). The conditions noted are these: Podosphaera fuliginea, in Cucumis sativus, 240 h, read-out: Protective value.
The test system of another experiment is Pyricularia orzae. The experiment can be described thus: whole plant or invertebrate. The format is in vivo, Pyricularia orzae (rice plant, Chukyo Asahi). Particulars: in Oryza sativa, 120 h, read-out: Protective value.
A further experiment deals with Tetranychus telarius (L). Nature of the experiment: Test 6: mortality of larvae and adults of Tetranychus telarius on kidney bean leaf. The format is in vivo. The conditions noted are these: foliar, 72 h, leaf dipped, wettable powder of Composition No. 5, three days after treatment, read-out: Percent mortality. The method, then:
Young seedling of kidney bean treated to cut off leaves except one primordial leaf was transplanted in a cup and about 30 of larvae and adults of Tetranychus telarius (L) were inoculated on the primordial leaf. This was dipped for 10 seconds in each solution obtained by diluting each wettable powder of Composition No. 5 containing each active ingredient with water at the concentration of 800 ppm and was dried in air and was kept in a constant temperature chamber with lighting at 28° C. Three days after the treatment, mortality was measured and each percent mortality was calculated as follows. [formula]

In a further experiment the test system is Rhizoctonia solani. The experiment can be described thus: whole plant or invertebrate. Type of experiment: in vivo, Rhizoctonia solani (rice plant, Chukyo Asahi). The conditions noted are these: in Oryza sativa, 120 h, read-out: Preventive value.
Another experiment has as its system Botrytis cinerea. The experiment can be described thus: Test 9: protective value on cucumber inoculated with Botrytis cinerea. The format is in vivo, Botrytis cinerea (cucumber plant, Suyo). The conditions noted are these: 72 h; for pest or weed control at 250 ppm: 10 ml sprayed, lesion length three days after inoculation. The method, then:
In each unglazed pot having a diameter of 9 cm, cucumber plant (Suyo) was cultured. At one leaf stage, 10 ml. of each solution of each active ingredient having a concentration of 250 ppm was sprayed by a spray gun. After maintaining the pot in a green-house at 24° to 25° C. for one day, a disc (punched agar disc) obtained by culturing Botrytis cinerea on a potato-glucose-agar medium (PDA medium) was put on the leaf of cucumber to inoculate them. Three days after the inoculation, lengths of lesions were measured and each protective value was calculated as Test 2.
In accordance with the test, except the concentration of the active ingredient was decreased, the comparative tests of Compound No. 7 and Reference compound were carried out.

Another experiment relates to Callosobruchus chinensis. Nature of the experiment: Test 7: mortality of adults of Callosobruchus chinensis on film in Petri-dish. Type of experiment: in vivo. Particulars: 400 μg per Petri-dish of 9 cm, 25° C., 24 hours, read-out: Percent mortality. How it is done: Each active ingredient was dissolved in acetone to prepare each solution having the specific concentration. 1 Ml. of the solution (400 μg. of each active ingredient) was uniformly adhered on the inner bottom surface of Petri-dish having a diameter of 9 cm to form a film. In the dish, 15 of adults of Callosobruchus chinensis were charged and the dish was covered with a cap and kept in a constant temperature chamber at 25° C. for 24 hours. Each percent mortality was calculated as that of Test 6.

Experiment [1] relates to Collectotrichum lagenarium. The experiment can be described thus: Test 3: protective value on cucumber inoculated with Collectotrichum lagenarium. The format is in vivo, Collectotrichum lagenarium (cucumber plant, Suyo). Particulars: 500 ppm, 10 ml sprayed; lesions six days after inoculation. How it is done: In each unglazed pot having a diameter of 9 cm, cucumber plant (Suyo) was cultured. At one leaf stage, 10 ml. of each solution of each active ingredient having a concentration of 500 ppm was sprayed by a spray gun. After maintaining the pot in a green-house at 24° to 25° C. for one day, each spore suspension of Collectotrichum lagenarium was sprayed. Six days after the inoculation, number of lesions on the first leaf of seedling was observed. The protective value was calculated as Test 1.

As to `O=[N+]([O-])c1cc([N+](=O)[O-])c(Nc2nc(Cl)ccc2C(F)(F)F)c(C(F)(F)F)c1` [compound 66, N-(2-chloro-5-trifluoromethyl-6-pyridyl)-2,4-dinitro-6-trifluoromethylaniline], in the experiment with Plutella xylostella, the mortality at 800 ppm was found to be 100%. Also, in the experiment with Sphaerotheca fuliginea, the pest or weed control at 100 ppm amounted to 100%.
Turning to `CCCOc1c(C(F)(F)F)cc([N+](=O)[O-])c(Nc2ncc(C(F)(F)F)cc2Cl)c1[N+](=O)[O-]` [compound 41], the pest or weed control at 100 ppm with Pyricularia orzae and in the experiment with Rhizoctonia solani was 95% in each case. Further, the mortality at 800 ppm in the experiment with Tetranychus telarius (L) and in the experiment on Plutella xylostella was 100% throughout.
For the compound `O=[N+]([O-])c1ccc(Nc2c(Cl)c(F)nc(F)c2Cl)c(C(F)(F)F)c1` [Reference compound, N-(2,6-difluoro-3,5-dichloro-4-pyridyl)-N-(4-nitro-2-trifluoromethylphenyl)amine, reference compound], in the experiment on Botrytis cinerea (62.5 ppm), the pest or weed control at 62.5 ppm stood at 0%. The pest or weed control at 12.5 ppm in the experiment on Pyricularia orzae is 0%. Further, the pest or weed control at 25 ppm with Pyricularia orzae was found to be 0%. For the same compound, the mortality at 800 ppm in the experiment with Tetranychus telarius (L) was found to be 40%; with Plutella xylostella, 0%.
In the case of `O=[N+]([O-])c1cc([N+](=O)[O-])c(Nc2ncc(Cl)cc2Cl)c(C(F)(F)F)c1` [compound 60, N-(3,5-dichloro-2-pyridyl)-2,4-dinitro-6-trifluoromethylaniline], the mortality at 400 µg/dish in the experiment on Callosobruchus chinensis was 100%. The pest or weed control at 50 ppm in the experiment on Pyricularia orzae worked out at 100%. Besides, the mortality at 800 ppm with Plutella xylostella is 100%. The pest or weed control at 100 ppm in the experiment with Rhizoctonia solani is 100%.
With `O=[N+]([O-])c1cc(C(F)(F)F)c(Cl)c([N+](=O)[O-])c1Nc1ncc(C(F)(F)F)cc1Br` [compound 21], the pest or weed control at 250 ppm in the experiment with Botrytis cinerea was determined as 100%. In addition, in the experiment with Pyricularia orzae, the pest or weed control at 100 ppm came to 100%. Moreover, the pest or weed control at 500 ppm in the experiment with Sphaerotheca fuliginea came out at 100%.
Turning to `O=[N+]([O-])c1cc([N+](=O)[O-])c(Nc2ncc(Br)cc2Br)c(C(F)(F)F)c1` [compound 61], the mortality at 400 µg/dish in the experiment on Callosobruchus chinensis came to 100%. For the same compound, in the experiment on Pyricularia orzae, the pest or weed control at 50 ppm was found to be 100%. Moreover, the mortality at 800 ppm in the experiment with Plutella xylostella is 100%. Moreover, in the experiment with Rhizoctonia solani, the pest or weed control at 100 ppm came to 100%.
For `Cc1nc(Nc2c([N+](=O)[O-])cc([N+](=O)[O-])cc2C(F)(F)F)c(Cl)c(C)c1Cl` [compound 77, N-(3,5-dichloro-4,6-dimethyl-2-pyridyl)-2,4-dinitro-6-trifluoromethylaniline], the mortality at 400 µg/dish in the experiment on Callosobruchus chinensis is 100%. Also, in the experiment with Plutella xylostella, the mortality at 800 ppm is 100%.
Compound `O=[N+]([O-])c1cc(C(F)(F)F)c(Oc2ccc(O)cc2)c([N+](=O)[O-])c1Nc1ncc(C(F)(F)F)cc1Cl` [compound 49] had a pest or weed control at 250 ppm with Botrytis cinerea of 100%. In the experiment with Tetranychus telarius (L), the mortality at 800 ppm was 100%. In addition, the pest or weed control at 100 ppm in the experiment on Rhizoctonia solani was determined as 100%.
Turning to `O=[N+]([O-])c1cc([N+](=O)[O-])c(Nc2ccc(Br)cn2)c(C(F)(F)F)c1` [compound 54], the mortality at 400 µg/dish with Callosobruchus chinensis stood at 100%. The pest or weed control at 50 ppm with Pyricularia orzae worked out at 100%. Besides, the pest or weed control at 100 ppm with Rhizoctonia solani stood at 90%.
In turn, `O=[N+]([O-])c1cc(C(F)(F)F)cc([N+](=O)[O-])c1Nc1ncc(C(F)(F)F)cc1Br` [compound 22] returned a pest or weed control at 250 ppm in the experiment with Botrytis cinerea of 100%. Also, the pest or weed control at 100 ppm with Pyricularia orzae stood at 100%. Moreover, the mortality at 800 ppm with Tetranychus telarius (L) worked out at 100%. In the experiment on Sphaerotheca fuliginea, the pest or weed control at 500 ppm was 100%.
Turning to `O=[N+]([O-])c1cc([N+](=O)[O-])c(Nc2ccc(Cl)cn2)c(C(F)(F)F)c1` [compound 52], the mortality at 400 µg/dish with Callosobruchus chinensis is 100%. In addition, in the experiment on Plutella xylostella, the mortality at 800 ppm is 100%.
For the compound `O=[N+]([O-])c1cc([N+](=O)[O-])c(Nc2ncc(Br)cc2Cl)c(C(F)(F)F)c1` [compound 63], the mortality at 400 µg/dish with Callosobruchus chinensis amounted to 100%. For the same compound, the mortality at 800 ppm in the experiment with Plutella xylostella was determined as 100%. For the same compound, the pest or weed control at 100 ppm with Rhizoctonia solani is 100%.
In the case of `O=[N+]([O-])c1cc([N+](=O)[O-])c(Nc2ncc(C(F)(F)F)cc2Cl)c(C(F)(F)F)c1` [compound 65], the mortality at 400 µg/dish in the experiment with Callosobruchus chinensis came out at 100%. The pest or weed control at 50 ppm with Pyricularia orzae is 100%. Moreover, the mortality at 800 ppm in the experiment with Plutella xylostella worked out at 100%. Moreover, the pest or weed control at 100 ppm in the experiment on Rhizoctonia solani was determined as 100%.
Turning to `CCOc1c(C(F)(F)F)cc([N+](=O)[O-])c(Nc2ncc(C(F)(F)F)cc2Cl)c1[N+](=O)[O-]` [compound 40, N-(3-chloro-5-trifluoromethyl-2-pyridyl)-2,6-dinitro-3-ethoxy-4-trifluoromethylaniline], the pest or weed control at 100 ppm with Pyricularia orzae and with Rhizoctonia solani was 100% in each case. In addition, the mortality at 800 ppm in the experiment on Tetranychus telarius (L) and with Plutella xylostella was 100% throughout.
In the case of `Cc1c(Cl)cnc(Nc2c([N+](=O)[O-])cc(C(F)(F)F)c(Cl)c2[N+](=O)[O-])c1Cl` [compound 12], the pest or weed control at 100 ppm with Pyricularia orzae turned out to be 100%. This compound also displayed a Protective value in experiment [1] of 75%.
Regarding `O=[N+]([O-])c1cc([N+](=O)[O-])c(Nc2ncc(Cl)cc2Br)c(C(F)(F)F)c1` [Compound No. 62], the mortality at 400 µg/dish with Callosobruchus chinensis was 100%. Also, in the experiment on Plutella xylostella, the mortality at 800 ppm worked out at 100%. The pest or weed control at 100 ppm with Sphaerotheca fuliginea and in the experiment on Rhizoctonia solani was 100% throughout.
With `O=[N+]([O-])c1cc([N+](=O)[O-])c(Nc2ccc(C(F)(F)F)c(Cl)n2)c(C(F)(F)F)c1` [compound 70], the mortality at 400 µg/dish in the experiment on Callosobruchus chinensis worked out at 100%. Besides, in the experiment with Plutella xylostella, the mortality at 800 ppm stood at 100%.
Regarding `O=[N+]([O-])c1cc([N+](=O)[O-])c(Nc2ncccc2C(F)(F)F)c(C(F)(F)F)c1` [compound 81], in the experiment on Callosobruchus chinensis, the mortality at 400 µg/dish was 100%. The pest or weed control at 50 ppm in the experiment with Pyricularia orzae is 100%. In the experiment with Plutella xylostella, the mortality at 800 ppm came out at 100%.
With `O=[N+]([O-])c1cc(C(F)(F)F)cc([N+](=O)[O-])c1Nc1nc(Cl)c(C(F)(F)F)cc1Br` [compound 32], the pest or weed control at 100 ppm with Pyricularia orzae and with Rhizoctonia solani was 100% throughout. Also, in the experiment on Sphaerotheca fuliginea, the pest or weed control at 500 ppm stood at 100%.
Take `O=[N+]([O-])c1cc(C(F)(F)F)cc([N+](=O)[O-])c1Nc1c(Cl)cncc1Cl` [compound 15, N-(3,5-dichloro-4-pyridyl)-2,6-dinitro-4-trifluoromethylaniline]: the pest or weed control at 100 ppm with Pyricularia orzae and in the experiment with Rhizoctonia solani was 100% in each case. For the same compound, the mortality at 800 ppm in the experiment on Tetranychus telarius (L) and in the experiment on Plutella xylostella was 100% throughout. Also, in the experiment with Sphaerotheca fuliginea, the pest or weed control at 500 ppm was 100%.
Turning to `O=[N+]([O-])c1cc(C(F)(F)F)c(Cl)c([N+](=O)[O-])c1Nc1ncc(Cl)cc1C(F)(F)F` [compound 29], in the experiment on Botrytis cinerea, the pest or weed control at 250 ppm amounted to 100%. In addition, the pest or weed control at 100 ppm in the experiment with Pyricularia orzae and in the experiment on Rhizoctonia solani was 100% throughout. Also, the mortality at 800 ppm in the experiment with Tetranychus telarius (L) and in the experiment with Plutella xylostella was 100% in each case.
Regarding `O=[N+]([O-])c1cc(C(F)(F)F)cc([N+](=O)[O-])c1Nc1ncccc1C(F)(F)F` [compound 37], the pest or weed control at 250 ppm with Botrytis cinerea was 93%. Besides, the pest or weed control at 100 ppm with Pyricularia orzae and in the experiment with Rhizoctonia solani was 100% in each case. The mortality at 800 ppm in the experiment on Tetranychus telarius (L) is 100%.
`O=[N+]([O-])c1cc(C(F)(F)F)cc([N+](=O)[O-])c1Nc1ncc(C(F)(F)F)cc1Cl` [Compound No. 2]: the mortality at 400 µg/dish in the experiment with Callosobruchus chinensis is 100%. Further, the pest or weed control at 100 ppm with Pyricularia orzae and in the experiment with Rhizoctonia solani was 100% each time.
With `O=[N+]([O-])c1cc(C(F)(F)F)c(Cl)c([N+](=O)[O-])c1Nc1nc(Cl)c(Br)cc1C(F)(F)F` [compound 31], the pest or weed control at 500 ppm in the experiment on Sphaerotheca fuliginea amounted to 100%. In addition, the pest or weed control at 100 ppm with Rhizoctonia solani came to 90%.

The term mortality denotes the percentage killed.
